The results in this text go back to ChEMBL document CHEMBL1128643, “Impact of polyamine analogues on the NMDA receptor” (1995).

Experiment [1] is filed under the species Rattus norvegicus. In words: Compound was evaluated for agonist activity at 10 uM exhibiting moderate antagonism of [3H]MK-801 binding relative to 100% control. Also noted: unit: % of control. The format is functional.
The species entered for experiment [2] is Rattus norvegicus. In words: Compound was evaluated for agonist activity at 1 uM exhibiting moderate antagonism of [3H]MK-801 binding relative to 100% control. The format is functional. Further details: unit: % of control.

On to `C(CCNCCCCN[C@]12C[C@H]3C[C@H](C[C@H](C3)C1)C2)CNCCCCNC12C[C@H]3C[C@@H](C1)C[C@@H](C2)C3.Cl`, for which the figures for the Activity in the experiment listed under Rattus norvegicus [1] and in the experiment listed under Rattus norvegicus [2] were 15 and 101.9, respectively. In the same order, the values of `CC(C)(C)NCCCCNCCCCNCCCCNC(C)(C)C` are 33 and 106.5. As for `CCNCCCCNCCCCNCCCCNCC` [DIETHYLHOMOSPERMINE], the Activity in the experiment listed under Rattus norvegicus [1] is on record as 53.9; in the experiment filed under Rattus norvegicus [2], 114.3. Turning to `CNCCCCNCCCCNCCCCNC`, the Activity is listed as 76.3 in the experiment filed under Rattus norvegicus [1] and 117.8 in the experiment listed under Rattus norvegicus [2]. Turning to `CNCCCNCCCNCCCNC`, the Activity amounted to 87.9 in the experiment filed under Rattus norvegicus [1] and 120.6 in the experiment filed under Rattus norvegicus [2].

For the compound `CCNCCCNCCCCNCCCNCC` [BIS(ETHYL)SPERMINE], the Activity in the experiment filed under Rattus norvegicus [1] came to 63.7; in the experiment filed under Rattus norvegicus [2], 113.7. In turn, `NCCCNCCCCNCCCN` [SPERMINE] gave an Activity in the experiment listed under Rattus norvegicus [2] of 123.2.
